Results taken from patent US7598242B2 (priority 2001, dated 2009).
pKi: −log10 of the molar value.

biological target: T1, purified catalytic domain of recombinant human TACE (rhTACEc) (Homo sapiens, UniProt P78536, N452Q/S266A); experiment: biochemical
T1 construct: Residue 215 to 477 with two mutation (S266A and N452Q) and a 6×His tail; 6xHis (C); made in house; host or cells: baculovirus/Hi5 insect cells
T1 sequence (P78536 215-477 S266A/N452Q): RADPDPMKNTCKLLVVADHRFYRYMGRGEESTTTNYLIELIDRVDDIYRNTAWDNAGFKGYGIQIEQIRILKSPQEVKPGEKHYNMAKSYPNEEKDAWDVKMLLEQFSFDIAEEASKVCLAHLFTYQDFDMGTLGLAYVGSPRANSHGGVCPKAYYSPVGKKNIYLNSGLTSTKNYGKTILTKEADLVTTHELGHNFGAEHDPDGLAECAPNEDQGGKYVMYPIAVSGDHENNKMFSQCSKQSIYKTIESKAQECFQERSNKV

| pKi | SMILES |
| --- | --- |
| > 7.70 | Cc1cc(COc2ccc(C[C@]3(C(=O)N(C)C)C[C@@H]3C(=O)NO)cc2)c2ccccc2n1 [BL] |
| > 7.70 | CN(C)C(=O)[C@@]1(Cc2ccc(OCc3cc(C(F)(F)F)nc4ccccc34)cc2)C[C@@H]1C(=O)NO [BO] |
| > 7.70 | CN(C)CCNC(=O)[C@@]1(Cc2ccc(OCc3cc(C(F)(F)F)nc4ccccc34)cc2)C[C@@H]1C(=O)NO [BP] |
| > 7.70 | O=C1CN(C(=O)[C@@]2(Cc3ccc(OCc4cc(-c5ccccc5)nc5ccccc45)cc3)C[C@@H]2C(=O)NO)CCN1 [BQ] |
| > 7.70 | CN(C)c1cc(COc2ccc(C[C@]3(C(N)=O)C[C@@H]3C(=O)NO)cc2F)c2ccccc2n1 [CN] |
| > 7.70 | CCc1cc(COc2ccc(C[C@]3(C(N)=O)C[C@@H]3C(=O)NO)cc2F)c2ccccc2n1 [CO] |
| > 7.70 | CCCc1cc(COc2ccc(C[C@]3(C(N)=O)C[C@@H]3C(=O)NO)cc2F)c2ccccc2n1 [CR] |
| > 7.70 | NC(=O)[C@@]1(Cc2ccc(OCc3cc(-c4ccccn4)nc4ccccc34)c(F)c2)C[C@@H]1C(=O)NO [CS] |
| > 7.70 | NC(=O)[C@@]1(Cc2ccc(OCc3cc(C4CC4)nc4ccccc34)c(F)c2)C[C@@H]1C(=O)NO [CU] |
| > 7.70 | Cc1cc(COc2ccc(C[C@]3(C(N)=O)C[C@@H]3C(=O)NO)cc2F)c2ccccc2n1 [CV] |
| > 7.70 | NC(=O)[C@@]1(Cc2ccc(OCc3cc(-c4ccccc4Cl)nc4ccccc34)c(F)c2)C[C@@H]1C(=O)NO [CW] |
| > 7.70 | NC(=O)[C@@]1(Cc2ccc(OCc3cc(-c4ccc(Cl)cc4)nc4ccccc34)c(F)c2)C[C@@H]1C(=O)NO [CY] |
| > 7.70 | CN(C)C(=O)[C@@]1(Cc2ccc(OCc3cc(-c4ccncc4)nc4ccccc34)c(F)c2)C[C@@H]1C(=O)NO [CZ] |
| > 7.70 | NC(=O)[C@@]1(Cc2ccc(OCc3cc(-c4cccnc4)nc4ccccc34)cc2)C[C@@H]1C(=O)NO [DA] |
| > 7.70 | CCc1cc(COc2ccc(C[C@]3(C(=O)OC)C[C@@H]3C(=O)NO)cc2F)c2ccccc2n1 [DB] |
| > 7.70 | Cc1cc(COc2ccc(C[C@]3(C#N)C[C@@H]3C(=O)NO)cc2)c2ccccc2n1 [FG] |
| > 7.70 | Cc1cc(COc2ccc(C[C@]3(C(N)=O)C[C@@H]3C(=O)NO)cc2Cl)c2ccccc2n1 [FN] |
| > 7.70 | Cc1cc(COc2ccc(C[C@]3(C(N)=O)C[C@@H]3C(=O)NO)cc2Br)c2ccccc2n1 [FQ] |
| > 7.70 | CC1CCCN1c1cc(COc2ccc(C[C@]3(C(N)=O)C[C@@H]3C(=O)NO)cc2F)c2ccccc2n1 (some centres unmarked) [FV] |
| > 7.70 | CN1CCN(c2cc(COc3ccc(C[C@]4(C(N)=O)C[C@@H]4C(=O)NO)cc3F)c3ccccc3n2)CC1 [FX] |
| > 7.70 | COC(=O)[C@@]1(Cc2ccc(OCc3cc(N4CCCC4)nc4ccccc34)c(F)c2)C[C@@H]1C(=O)NO [FY] |
| > 7.70 | COC(=O)[C@@]1(Cc2ccc(OCc3cc(N4CCOCC4)nc4ccccc34)c(F)c2)C[C@@H]1C(=O)NO [FZ] |

| pKi | SMILES |
| --- | --- |
| > 7.70 | COC(=O)[C@@]1(Cc2ccc(OCc3cc(N4CCN(C)CC4)nc4ccccc34)c(F)c2)C[C@@H]1C(=O)NO [GA] |
| > 7.70 | CNc1cc(COc2ccc(C[C@]3(C(=O)OC)C[C@@H]3C(=O)NO)cc2F)c2ccccc2n1 [GB] |
| > 7.70 | CCOC(=O)[C@@]1(Cc2ccc(OCc3cc(-c4cccnc4)nc4ccc(C)cc34)c(F)c2)C[C@@H]1C(=O)NO [GV] |
| > 7.70 | CCc1cc(COc2ccc(C[C@]3(C(=O)N4CC[C@H](O)C4)C[C@@H]3C(=O)NO)cc2)c2ccccc2n1 [JC] |
| > 7.70 | CN(C)CCN(C)C(=O)[C@@]1(Cc2ccc(OCc3cc(-c4ccccc4)nc4ccccc34)cc2)C[C@@H]1C(=O)NO [JD] |
| > 7.70 | O=C(NO)[C@H]1C[C@]1(Cc1ccc(OCc2cc(-c3ccccc3)nc3ccccc23)cc1)C(=O)N1CC[C@H](NC(=O)C(F)(F)F)C1 [JE] |
| > 7.70 | CCc1cc(COc2ccc(C[C@]3(C(=O)N4CC[C@H](N(C)C)C4)C[C@@H]3C(=O)NO)cc2)c2ccccc2n1 [JF] |
| > 7.70 | Cc1cc(COc2ccc(C[C@]3(C(=O)N4CCC[C@H]4CO)C[C@@H]3C(=O)NO)cc2)c2ccccc2n1 [JG] |
| > 7.70 | Cc1cc(COc2ccc(C[C@]3(C(=O)N(C)C)C[C@@H]3C(=O)NO)cc2F)c2ccccc2n1 [JO] |
| > 7.70 | CCc1cc(COc2ccc(C[C@]3(C(=O)N4CC[C@H](O)C4)C[C@@H]3C(=O)NO)cc2F)c2ccccc2n1 [JR] |
| > 7.70 | CCc1cc(COc2ccc(C[C@]3(C(=O)N4CC[C@@H](N)C4)C[C@@H]3C(=O)NO)cc2F)c2ccccc2n1 [JS] |
| > 7.70 | CCc1cc(COc2ccc(C[C@]3(C(=O)N4CC[C@H](N(C)C)C4)C[C@@H]3C(=O)NO)cc2F)c2ccccc2n1 [JT] |
| > 7.70 | CCc1cc(COc2ccc(C[C@]3(C(=O)N4CC[C@@H](NC(=O)C(F)(F)F)C4)C[C@@H]3C(=O)NO)cc2F)c2ccccc2n1 [JU] |
| > 7.70 | CN(C)C1CCN(C(=O)[C@@]2(Cc3ccc(OCc4cc(-c5ccncc5)nc5ccccc45)c(F)c3)C[C@@H]2C(=O)NO)C1 (some centres unmarked) [JV] |
| > 7.70 | Cc1cc(COc2cccc([C@@]3(C(=O)NC4CCCCC4)C[C@H]3C(=O)NO)c2)c2ccccc2n1 [JY] |
| > 7.70 | Cc1cc(COc2cccc([C@@]3(C(=O)OC(C)C)C[C@H]3C(=O)NO)c2)c2ccccc2n1 [KM] |
| > 7.70 | N[C@@H]1CCN(C(=O)[C@@]2(Cc3ccc(OCc4cc(-c5ccccc5)nc5ccccc45)cc3)C[C@@H]2C(=O)NO)C1 [KZ] |
| > 7.70 | CCOC(=O)[C@@]1(Cc2ccc(OCc3ccnc(N4CCOCC4)c3)cc2)C[C@@H]1C(=O)NO [LH] |
| > 7.70 | COC(=O)[C@@]1(Cc2ccc(OCc3cc(-c4ccncc4)nc4ccccc34)c(F)c2)C[C@@H]1C(=O)NO [LI] |
| > 7.70 | NC(=O)[C@@]1(Cc2ccc(OCc3cc(N4CCCCC4)nc4ccccc34)c(F)c2)C[C@@H]1C(=O)NO [LM] |
| > 7.70 | Cc1cc(COc2ccc(C[C@]3(C(=O)NCc4ccccc4)C[C@@H]3C(=O)NO)cc2)c2ccccc2n1 [O] |
| > 7.70 | Cc1cc(COc2ccc(C[C@]3(C(=O)NCc4cccnc4)C[C@@H]3C(=O)NO)cc2)c2ccccc2n1 [P] |
